This is an account of results in patent US7935722B2 (Eli Lilly and Company, priority 2005, dated 2011).

Where two headings read alike, the source gives them in different places.

As usually defined, the melting point is the temperature, or range, at which the solid turns liquid. The EC50 is the concentration needed to bring the measured effect to its halfway point. Usually Ki stands for the equilibrium dissociation constant of an inhibitor or competing ligand from its target.

Data set [1] deals with T1, human androgen receptor (AR) (Homo sapiens, UniProt P10275).
T1 construct: expressed in transfected cells; host or cells: mouse myoblast C2C12 cells, transiently co-transfected
T1 sequence (P10275 1-920): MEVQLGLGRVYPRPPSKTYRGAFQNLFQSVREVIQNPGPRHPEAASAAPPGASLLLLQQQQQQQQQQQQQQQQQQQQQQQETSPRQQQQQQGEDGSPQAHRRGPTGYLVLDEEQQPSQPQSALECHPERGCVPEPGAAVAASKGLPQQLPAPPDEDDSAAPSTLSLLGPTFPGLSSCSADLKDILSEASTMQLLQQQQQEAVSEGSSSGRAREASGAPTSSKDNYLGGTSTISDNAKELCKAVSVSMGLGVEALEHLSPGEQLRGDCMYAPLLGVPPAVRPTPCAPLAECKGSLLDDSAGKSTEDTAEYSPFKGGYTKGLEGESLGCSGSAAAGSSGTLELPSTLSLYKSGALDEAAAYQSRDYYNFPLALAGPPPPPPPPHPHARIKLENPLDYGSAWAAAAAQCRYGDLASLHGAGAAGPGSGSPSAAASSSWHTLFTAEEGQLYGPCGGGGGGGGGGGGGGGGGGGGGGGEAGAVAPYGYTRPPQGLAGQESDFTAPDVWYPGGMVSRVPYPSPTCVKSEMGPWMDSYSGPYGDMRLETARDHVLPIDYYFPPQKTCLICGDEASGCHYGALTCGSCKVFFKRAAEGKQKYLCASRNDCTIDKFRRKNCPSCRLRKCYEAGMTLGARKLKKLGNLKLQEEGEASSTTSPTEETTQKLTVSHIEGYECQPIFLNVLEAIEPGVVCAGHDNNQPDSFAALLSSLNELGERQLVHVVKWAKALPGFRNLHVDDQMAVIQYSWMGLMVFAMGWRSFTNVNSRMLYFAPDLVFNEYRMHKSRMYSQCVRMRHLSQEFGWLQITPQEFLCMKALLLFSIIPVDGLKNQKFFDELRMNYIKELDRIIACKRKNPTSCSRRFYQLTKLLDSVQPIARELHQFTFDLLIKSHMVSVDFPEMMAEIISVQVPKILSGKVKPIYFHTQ
Put plainly: C2C12 AR/ARE reporter assay. The format is cell-based. In short, it runs like this: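 Mouse C2C12 myoblasts co-transfected with AR/ARE reporter were plated in charcoal-stripped serum and treated for 48 h with compound from about 0.01 nM to 10 μM. Luciferase activity gave EC50 by 4-parameter logistic fit. Efficacy is expressed as % of maximal stimulation by 10 nM methyltrienolone.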
(A reporter such as luciferase makes a cellular process visible.)

Data set [2] addresses T2, human AR (androgen receptor) (Homo sapiens, UniProt P10275).
T2 construct: expressed in transfected cells; host or cells: 293 cells (293-AR lysate)
T2 sequence (P10275 1-920): T1 sequence (P10275 1-920)
Put plainly: Steroid hormone nuclear receptor binding assay, AR binding. In short, it runs like this:
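Competition binding with lysates of 293 cells overexpressing human AR, [3H]-methyltrienolone tracer, compounds from about 0.01 nM to 10 μM, overnight at 4 °C; non-specific binding set with 500 nM methyltrienolone. Bound tracer counted by scintillation after charcoal-dextran separation; IC50 converted to Ki by Cheng-Prusoff using Kd from saturation binding.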

Where [3] appears, read: C2C12, read-out: C2C12 % Efficacy.
The mark [4] stands for this setting: C2C12 AR/ARE reporter assay, average of n trials, read-out: C2C12 % Efficacy.
[5] abbreviates: C2C12 AR/ARE reporter assay, average of n trials, read-out: C2C12 EC50.
[6] abbreviates: average of n trials, read-out: AR binding Ki.

For the compound `CC(C)C(=O)N[C@@H]1CCc2c(c3cc(C#N)ccc3n2Cc2cccc(F)c2)C1` (single isomer, unassigned) [Example 123], the melting point fell in the range of 223 to 225 °C. Also, in data set [1], it took 1.8 nM to reach a half-maximal effect (EC50). Moreover, the Emax in data set [1] (setting [3]) was 87%. Moreover, the Ki in data set [2] was determined as 1 nM.

As for `CC(C)C(=O)NC1CCc2c(c3cc(F)ccc3n2Cc2ccccc2F)C1` (stereo not drawn) [Example 4], the melting point is 156 to 158 °C. Also, in data set [1] (setting [3]), the Emax came to 36.1%.

`CC(C)C(=O)NC1CCc2c(c3cc(Cl)ccc3n2Cc2ccccc2)C1` (stereo not drawn) [Example 16]: the melting point was 174 to 176 °C. In addition, the Emax in data set [1] (setting [3]) stood at 86%.

In turn, `CC(C)C(=O)NC1CCc2c(c3cc(Cl)ccc3n2Cc2cccc(F)c2)C1` (stereo not drawn) [Example 21] came in with a melting point of 187 to 189 °C. Also, the Emax in data set [1] (setting [3]) is 81%.

Take `COc1cccc(Cn2c3c(c4cc(Cl)ccc42)CC(NC(=O)C(C)C)CC3)c1` (stereo not drawn) [Example 23]: the melting point was 178 to 181 °C. In data set [1] (setting [3]), the Emax was determined as 54.4%.

`CC(C)C(=O)NC1CCc2c(c3cc(Cl)ccc3n2Cc2cccc(C#N)c2)C1` (stereo not drawn) [Example 24]: the melting point was 225 to 228 °C (dec.). Moreover, the Emax in data set [1] (setting [3]) came to 48.9%.

`CC(C)C(=O)NC1CCc2c(c3cc(Cl)ccc3n2Cc2ccc(F)cc2)C1` (stereo not drawn) [Example 25] showed a melting point of 175 to 178 °C. In data set [1] (setting [3]), the Emax was found to be 62.7%.

`CC(C)C(=O)NC1CCc2c(c3cc(Cl)ccc3n2Cc2cc(F)cc(F)c2)C1` (stereo not drawn) [Example 29]: the melting point fell in the range of 207 to 210 °C. Besides, the Emax in data set [1] (setting [3]) worked out at 64%.

Compound `CC(C)C(=O)NC1CCc2c(c3cc(Br)ccc3n2Cc2ccccc2)C1` (stereo not drawn) [Example 30] registered a melting point of 173 to 177 °C. The Emax in data set [1] (setting [3]) turned out to be 87%.

`CC(C)C(=O)NC1CCc2c(c3cc(Br)ccc3n2Cc2ccccc2Cl)C1` (stereo not drawn) [Example 32] had a melting point of 196 to 198 °C. For the same compound, the Emax in data set [1] (setting [3]) turned out to be 94.3%.

Compound `COc1ccccc1Cn1c2c(c3cc(Br)ccc31)CC(NC(=O)C(C)C)CC2` (stereo not drawn) [Example 34] yielded a melting point of 108 to 111 °C. For the same compound, the Emax in data set [1] (setting [3]) was 103%.

`Cc1ccc2c(c1)c1c(n2Cc2cccc(F)c2)CCC(NC(=O)C(C)C)C1` (stereo not drawn) [Example 47] showed a melting point of 215 to 217 °C. Besides, the Emax in data set [1] (setting [3]) amounted to 86.3%.

For `CC(C)C(=O)NC1CCc2c(c3cc(C#N)ccc3n2Cc2cccc(F)c2)C1` (stereo not drawn) [Example 51, N-(6-cyano-9-(3-fluorobenzyl)-2,3,4,9-tetrahydro-1H-carbazol-3-yl)isobutyramide], the melting point lay within 195 to 199 °C. For the same compound, the Emax in data set [1] (setting [3]) came to 87.5%.

The compound `CC(C)C(=O)NC1CCc2c(c3ccc(Cl)cc3n2Cc2cccc(F)c2)C1` (stereo not drawn) [Example 56] showed a melting point of 233 to 235 °C. Also, the Emax in data set [1] (setting [3]) was determined as 66.6%.

In the case of `CC(C)C(=O)NC1CCc2c(c3cccc(F)c3n2Cc2cccc(F)c2)C1` (stereo not drawn) [Example 58], the melting point was in the range of 185 to 188 °C. In data set [1] (setting [3]), the Emax turned out to be 62.1%.

As to `CC(C)C(=O)N[C@@H]1CCc2c(c3cc(Br)ccc3n2Cc2cccc(F)c2)C1` [Example 122], the melting point lay in the range of 204 to 207 °C.

For `CC(C)C(=O)NC1CCc2c(c3cc(C=O)ccc3n2Cc2cccc(F)c2)C1` (stereo not drawn) [Example 197, N-[9-(3-Fluoro-benzyl)-6-formyl-2,3,4,9-tetrahydro-1H-carbazol-3-yl]-isobutyramide], in data set [1], the EC50 was found to be 26.8 nM. In addition, the Emax in data set [1] (setting [3]) was 147%. The compound also had a Ki in data set [2] of 4.2 nM.

In the case of `CC(C)C(=O)NC1CCc2c(c3cc(C(F)F)ccc3n2Cc2cccc(F)c2)C1` (stereo not drawn) [Example 198, N-[6-Difluoromethyl-9-(3-fluoro-benzyl)-2,3,4,9-tetrahydro-1H-carbazol-3-yl]-isobutyramide], in data set [1] (setting [4]), the Emax came out at 102%. In addition, in data set [1] (setting [5]), the EC50 was 11 nM. In data set [2] (setting [6]), the Ki stood at 3.2 nM.

Consider `CC(C)C(=O)N[C@@H]1CCc2c(c3cc(C=O)ccc3n2Cc2cccc(F)c2)C1` [Example 200, (R)-N-[9-(3-Fluorobenzyl)-6-formyl-2,3,4,9-tetrahydro-1H-carbazol-3-yl]-isobutyramide], for which, in data set [1], the EC50 worked out at 8.1 nM. Besides, the Emax in data set [1] (setting [3]) is 112%. Further, the affinity in data set [2] corresponds to a Ki of 2.8 nM.

For `CO/N=C/c1ccc2c(c1)c1c(n2Cc2cccc(F)c2)CC[C@@H](NC(=O)C(C)C)C1` [Example 201, (R)-N-[9-(3-Fluorobenzyl)-6-(methoxyimino-methyl)-2,3,4,9-tetrahydro-1H-carbazol-3-yl]-isobutyramide], the Emax in data set [1] (setting [4]) came to 79.9%. Also, in data set [1] (setting [5]), the concentration for a half-maximal effect (EC50) came to 5 nM. Further, the Ki in data set [2] (setting [6]) was determined as 2.9 nM.

Consider `CO/N=C/c1ccc2c(c1)c1c(n2Cc2cccc(F)c2)CCC(NC(=O)C2CC2)C1` (stereo not drawn) [Example 202, Cyclopropanecarboxylic acid[9-(3-fluorobenzyl)-6-(methoxyimino-methyl)-2,3,4,9-tetrahydro-1H-carbazol-3-yl]-amide], for which, in data set [1], the EC50 turned out to be 1.5 nM. For the same compound, in data set [1] (setting [3]), the Emax was 90.5%. In data set [2], this compound displayed an inhibitory constant (Ki) of 4.7 nM.

As for `O=C(N[C@@H]1CCc2c(c3cc(/C=N/O)ccc3n2Cc2cccc(F)c2)C1)C1CC1` [Example 203, (R)-Cyclopropanecarboxylic acid[9-(3-fluoro-benzyl)-6-(hydroxyimino-methyl)-2,3,4,9-tetrahydro-1H-carbazol-3-yl]-amide], the Emax in data set [1] (setting [4]) amounted to 73.1%. In addition, the EC50 in data set [1] (setting [5]) is 20.2 nM. The Ki in data set [2] (setting [6]) turned out to be 12.3 nM.

With `O=Cc1ccc2c(c1)c1c(n2Cc2ccccn2)CCC(NC(=O)C2CC2)C1` (stereo not drawn) [Example 206], the response in data set [1] was half-maximal at 206 nM (EC50). Also, in data set [1] (setting [3]), the Emax is 96.1%. The compound further registered an inhibition constant (Ki) in data set [2] of 99.2 nM.

For the compound `CC(C)C(=O)NC1CCc2c(c3cc(C(=O)C(F)(F)F)ccc3n2Cc2cccc(F)c2)C1` (stereo not drawn) [Example 210, N-[9-(3-Fluoro-benzyl)-6-(2,2,2-trifluoro-acetyl)-2,3,4,9-tetrahydro-1H-carbazol-3-yl]-isobutyramide], the EC50 in data set [1] came to 17.6 nM. For the same compound, the Emax in data set [1] (setting [3]) is 71.2%. In data set [2], this compound gave a Ki of 15.5 nM.

`Cc1nc(Cn2c3c(c4cc(C=O)ccc42)C[C@H](NC(=O)C(C)C)CC3)cs1` [Example 211, (R)-N-[6-Formyl-9-(2-methyl-thiazol-4-ylmethyl)-2,3,4,9-tetrahydro-1H-carbazol-3-yl]-isobutyramide] returned a half-maximal effective concentration (EC50) in data set [1] of 86.7 nM. The Emax in data set [1] (setting [3]) turned out to be 88.4%. Besides, the affinity in data set [2] corresponds to a Ki of 43.7 nM.

Turning to `CO/N=C/c1ccc2c(c1)c1c(n2Cc2csc(C)n2)CC[C@@H](NC(=O)C(C)C)C1` [Example 212, (R)-N-[6-(Methoxyimino-methyl)-9-(2-methyl-thiazol-4-ylmethyl)-2,3,4,9-tetrahydro-1H-carbazol-3-yl]-isobutyramide], the concentration giving a half-maximal response (EC50) in data set [1] was 7.8 nM. Moreover, the Emax in data set [1] (setting [3]) is 90.4%. This compound also showed a Ki in data set [2] of 16.7 nM.

As for `CN(C)S(=O)(=O)NC1CCc2c(c3cc(C#N)ccc3n2Cc2cccc(F)c2)C1` (stereo not drawn) [Example 213, N-[6-Cyano-9-(3-fluoro-benzyl)-2,3,4,9-tetrahydro-1H-carbazol-3-yl]-N′,N′-dimethylmethanesulfamide], the EC50 in data set [1] was found to be 40.2 nM. Also, the Emax in data set [1] (setting [3]) worked out at 95.4%. In data set [2], this compound returned an inhibitory constant (Ki) of 3.2 nM.
